# Reference: patent US7553867B2, “Furan or thiophene derivative and medicinal use thereof” (Takeda Pharmaceutical Company Limited, priority 2002, dated 2009)
row,melting point,Compound
1,153 to 154 °C,"Cc1oc(-c2ccc(C(F)(F)F)cc2)cc1COc1ccc2sc(CC(=O)O)cc2c1 [Example 6(101), [5-({2-Methyl-5-[4-(trifluoromethyl)phenyl]-3-furyl}methoxy)-1-benzothien-2-yl]acetic acid]"
2,187 to 188 °C,"Cc1oc(-c2ccc(C(F)(F)F)cc2)cc1COc1ccc2sc(CCC(=O)O)cc2c1 [Example 6(103), 3-[5-({2-Methyl-5-[4-(trifluoromethyl)phenyl]-3-furyl}methoxy)-1-benzothien-2-yl]propionic acid]"
3,148 to 149 °C,"Cc1oc(-c2ccc(C(F)(F)F)cc2)cc1COc1cccc(CSC(C)(C)C(=O)O)c1 [Example 6(109), 2-Methyl-2-{[3-({2-methyl-5-[4-(trifluoromethyl)phenyl]-3-furyl}methoxy)benzyl]thio}propionic acid]"
4,96 to 97 °C,"COc1ccc(-c2cc(COc3cccc(CSC(C)(C)C(=O)O)c3)c(C)o2)cc1 [Example 6(110), 2-[(3-{[5-(4-Methoxyphenyl)-2-methyl-3-furyl]methoxy}benzyl)thio]-2-methylpropionic acid]"
5,143 to 144 °C,"Cc1oc(-c2ccc(Cl)cc2)cc1COc1cccc(CSC(C)(C)C(=O)O)c1 [Example 6(111), 2-[(3-{[5-(4-Chlorophenyl)-2-methyl-3-furyl]methoxy}benzyl)thio]-2-methylpropionic acid]"
6,130 to 131 °C,"Cc1oc(-c2ccc(Cl)cc2)cc1COc1ccc(SC(C)(C)C(=O)O)cc1 [Example 6(114), 2-[(4-{[5-(4-Chlorophenyl)-2-methyl-3-furyl]methoxy}phenyl)thio]-2-methylpropionic acid]"
7,146 to 147 °C,"Cc1oc(-c2cccc(F)c2)cc1COc1ccc(SC(C)(C)C(=O)O)cc1 [Example 6(115), 2-[(4-{[5-(3-Fluorophenyl)-2-methyl-3-furyl]methoxy}phenyl)thio]-2-methylpropionic acid]"
8,115 to 116 °C,"Cc1oc(-c2ccccc2C(F)(F)F)cc1COc1ccc(SC(C)(C)C(=O)O)cc1 [Example 6(117), 2-Methyl-2-{[4-({2-methyl-5-[2-(trifluoromethyl)phenyl]-3-furyl}methoxy)phenyl]thio}propionic acid]"
9,127 to 128 °C,"Cc1oc(-c2ccc(C(F)(F)F)cc2)cc1COc1cccc(SC(C)(C)C(=O)O)c1 [Example 6(118), 2-Methyl-2-{[3-({2-methyl-5-[4-(trifluoromethyl)phenyl]-3-furyl}methoxy)phenyl]thio}propionic acid]"
10,127 to 128 °C,"Cc1oc(-c2ccc(C(F)(F)F)cc2)cc1CCCOc1ccc(SC(C)(C)C(=O)O)cc1 [Example 6(122), 2-Methyl-2-{[4-(3-{2-methyl-5-[4-(trifluoromethyl)phenyl]-3-furyl}propoxy)phenyl]thio}propionic acid]"
11,178 to 179 °C,"Cc1oc(-c2ccc(C(F)(F)F)cc2)cc1COc1cccc(-c2cccc(C(=O)O)c2)c1 [Example 6(125), 3′-({2-Methyl-5-[4-(trifluoromethyl)phenyl]-3-furyl}methoxy)-1,1′-biphenyl-3-carboxylic acid]"
12,121 to 122 °C,"Cc1oc(-c2ccc(C(F)(F)F)cc2)cc1COc1cccc(CSC2(C(=O)O)CCC2)c1 [Example 9(3), 1-{[3-({2-Methyl-5-[4-(trifluoromethyl)phenyl]-3-furyl}methoxy)benzyl]thio}cyclobutanecarboxylic acid]"
13,143 to 145 °C,"Cc1oc(-c2ccc(C(F)(F)F)cc2)cc1CCc1ncc(CC(=O)O)s1 [Example 13(1), [2-(2-{2-Methyl-5-[4-(trifluoromethyl)phenyl]-3-furyl}ethyl)-1,3-thiazol-5-yl]acetic acid]"
14,126 to 128 °C,"Cc1oc(-c2ccc(C(F)(F)F)cc2)cc1CCc1nc(C(C)C)c(CC(=O)O)o1 [Example 13(7), [4-Isopropyl-2-(2-{2-methyl-5-[4-(trifluoromethyl)phenyl]-3-furyl}ethyl)-1,3-oxazol-5-yl]acetic acid]"
15,116 to 117 °C,"Cc1cc(-c2ccc(C(F)(F)F)cc2)oc1COc1ccc(OC(C)(C)C(=O)O)cc1 [Example 20(2), 2-Methyl-2-[4-({3-methyl-5-[4-(trifluoromethyl)phenyl]-2-furyl}methoxy)phenoxy]propionic acid]"
16,84 to 85 °C,"CCOC(=O)C(C)(C)Oc1ccc(/C=C\c2cc(-c3ccc(C(F)(F)F)cc3)oc2C)cc1 [Example 21-b, Ethyl 2-methyl-2-[4-((Z)-2-{2-methyl-5-[4-(trifluoromethyl)phenyl]-3-furyl}ethenyl)phenoxy]propionate]"
17,140 to 141 °C,"Cc1oc(-c2ccc(C(F)(F)F)cc2)cc1/C=C/c1ccc(OC(C)(C)C(=O)O)cc1 [Example 22(1), 2-Methyl-2-[4-((E)-2-{2-methyl-5-[4-(trifluoromethyl)phenyl]-3-furyl}ethenyl)phenoxy]propionic acid]"

# The remaining lines, values behind:
row,Compound,melting point
1,"CCc1oc(-c2ccc(C(F)(F)F)cc2)cc1CCCOc1nn(CC(=O)O)c2ccccc12 [Example 6(100), [3-(3-{2-Ethyl-5-[4-(trifluoromethyl)phenyl]-3-furyl}propoxy)-1H-indazol-1-yl]acetic acid]",139 to 140 °C
2,"CCc1oc(-c2ccc(C(F)(F)F)cc2)cc1CCCOc1ccc2sc(CC(=O)O)cc2c1 [Example 6(102), [5-(3-{2-Ethyl-5-[4-(trifluoromethyl)phenyl]-3-furyl}propoxy)-1-benzothien-2-yl]acetic acid]",111 to 112 °C
3,"Cc1oc(-c2ccc(C(F)(F)F)cc2)cc1CCCCOc1ccc(OC(C)(C)C(=O)O)cc1 [Example 6(104), 2-Methyl-2-[4-(4-{2-methyl-5-[4-(trifluoromethyl)phenyl]-3-furyl}butoxy)phenoxy]propionic acid]",67 to 69 °C
4,"Cc1oc(-c2ccc(C(F)(F)F)cc2)cc1CCCCOc1ccc(SC(C)(C)C(=O)O)cc1 [Example 6(106), 2-Methyl-2-{[4-(4-{2-methyl-5-[4-(trifluoromethyl)phenyl]-3-furyl}butoxy)phenyl]thio}propionic acid]",155 to 156 °C
5,"Cc1oc(-c2ccc(C(F)(F)F)cc2)cc1COc1ccc2sc(CSC(C)(C)C(=O)O)cc2c1 [Example 6(107), 2-Methyl-2-({[5-({2-methyl-5-[4-(trifluoromethyl)phenyl]-3-furyl}methoxy)-1-benzothien-2-yl]methyl}thio)propionic acid]",158 to 159 °C
6,"Cc1oc(-c2cccc(C(F)(F)F)c2)cc1COc1ccc(SC(C)(C)C(=O)O)cc1 [Example 6(108), 2-Methyl-2-{[4-({2-methyl-5-[3-(trifluoromethyl)phenyl]-3-furyl}methoxy)phenyl]thio}propionic acid]",108 to 109 °C
7,"Cc1oc(-c2cccc(F)c2)cc1COc1cccc(CSC(C)(C)C(=O)O)c1 [Example 6(112), 2-[(3-{[5-(3-Fluorophenyl)-2-methyl-3-furyl]methoxy}benzyl)thio]-2-methylpropionic acid]",116 to 117 °C
8,"Cc1oc(-c2ccccc2)cc1COc1cccc(CSC(C)(C)C(=O)O)c1 [Example 6(119), 2-Methyl-2-({3-[(2-methyl-5-phenyl-3-furyl)methoxy]benzyl}thio)propionic acid]",113 to 114 °C
9,"Cc1ccc(-c2cc(COc3cccc(CSC(C)(C)C(=O)O)c3)c(C)o2)cc1 [Example 6(120), 2-Methyl-2-[(3-{[2-methyl-5-(4-methylphenyl)-3-furyl]methoxy}benzyl)thio]propionic acid]",121 to 122 °C
10,"Cc1oc(-c2ccc(C(F)(F)F)cc2)cc1COc1ccc(CCC(=O)O)cc1 [Example 6(123), 3-[4-({2-Methyl-5-[4-(trifluoromethyl)phenyl]-3-furyl}methoxy)phenyl]propionic acid]",182 to 183 °C
11,"Cc1oc(-c2ccc(C(F)(F)F)cc2)cc1COc1cccc(-c2cccc(CC(=O)O)c2)c1 [Example 6(126), [3′-({2-Methyl-5-[4-(trifluoromethyl)phenyl]-3-furyl}methoxy)-1,1′-biphenyl-3-yl]acetic acid]",128 to 129 °C
12,"Cc1oc(-c2ccc(C(F)(F)F)cc2)cc1COc1cccc(CSC(C)C(=O)O)c1 (stereo not drawn) [Example 9(1), 2-{[3-({2-Methyl-5-[4-(trifluoromethyl)phenyl]-3-furyl}methoxy)-benzyl]thio}propionic acid]",82 to 83 °C
13,"CCCC(SCc1cccc(OCc2cc(-c3ccc(C(F)(F)F)cc3)oc2C)c1)C(=O)O (stereo not drawn) [Example 9(4), 2-{[3-({2-Methyl-5-[4-(trifluoromethyl)phenyl]-3-furyl}methoxy)benzyl]thio}pentanoic acid]",61 to 62 °C
14,"Cc1nc(CCc2cc(-c3ccc(C(F)(F)F)cc3)oc2C)sc1CC(=O)O [Example 13(2), [4-Methyl-2-(2-{2-methyl-5-[4-(trifluoromethyl)phenyl]-3-furyl}ethyl)-1,3-thiazol-5-yl]acetic acid]",168 to 169 °C
15,"Cc1oc(-c2ccc(C(F)(F)F)cc2)cc1CCc1nc(C(C)C)c(CC(=O)O)s1 [Example 13(3), [4-Isopropyl-2-(2-{2-methyl-5-[4-(trifluoromethyl)phenyl]-3-furyl}ethyl)-1,3-thiazol-5-yl]acetic acid]",176 to 177 °C
16,"Cc1nc(CCCc2cc(-c3ccc(C(F)(F)F)cc3)oc2C)sc1CC(=O)O [Example 13(4), [4-Methyl-2-(3-{2-methyl-5-[4-(trifluoromethyl)phenyl]-3-furyl}propyl)-1,3-thiazol-5-yl]acetic acid]",162 to 163 °C
17,"Cc1oc(-c2ccc(C(F)(F)F)cc2)cc1CCc1ncc(CC(=O)O)o1 [Example 13(5), [2-(2-{2-Methyl-5-[4-(trifluoromethyl)phenyl]-3-furyl}ethyl)-1,3-oxazol-5-yl]acetic acid]",143 to 144 °C
18,"Cc1nc(CCc2cc(-c3ccc(C(F)(F)F)cc3)oc2C)oc1CC(=O)O [Example 13(6), [4-Methyl-2-(2-{2-methyl-5-[4-(trifluoromethyl)phenyl]-3-furyl}ethyl)-1,3-oxazol-5-yl]acetic acid]",120 to 121 °C
19,"Cc1cc(-c2ccc(C(F)(F)F)cc2)oc1COc1ccc(CC(C)(C)C(=O)O)cc1 [Example 20(1), 2,2-Dimethyl-3-[4-({3-methyl-5-[4-(trifluoromethyl)phenyl]-2-furyl}methoxy)phenyl]propionic acid]",124 to 126 °C
